Test results from PubChem BioAssay (NCI).
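Briefly, cells in 96-well plates were exposed to five compound concentrations for 48 h, and endpoints were estimated by linear interpolation. GI50 is the concentration that inhibits growth by half. TGI is the concentration that stops growth completely.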

What was measured:
Test in all cases: inhibition of tumour cell growth, NCI panel, 48 h
DLD-1 colon = tested on: DLD-1 colon
IGROV1 ovarian = tested on: IGROV1 ovarian
SF-268 CNS = tested on: SF-268 CNS
786-0 renal = tested on: 786-0 renal
COLO 205 colon = tested on: COLO 205 colon
M19-MEL melanoma = tested on: M19-MEL melanoma
SNB-75 CNS = tested on: SNB-75 CNS
UACC-257 melanoma = tested on: UACC-257 melanoma
CAKI-1 renal = tested on: CAKI-1 renal
A498 renal = tested on: A498 renal

Compound	TGI (DLD-1 colon)	TGI (IGROV1 ovarian)	TGI (SF-268 CNS)	TGI (786-0 renal)	TGI (COLO 205 colon)	TGI (M19-MEL melanoma)	TGI (SNB-75 CNS)	TGI (UACC-257 melanoma)	TGI (CAKI-1 renal)	TGI (A498 renal)	GI50 (DLD-1 colon)	GI50 (IGROV1 ovarian)	GI50 (SF-268 CNS)	GI50 (786-0 renal)	GI50 (A498 renal)	GI50 (COLO 205 colon)	GI50 (M19-MEL melanoma)	GI50 (SNB-75 CNS)	GI50 (UACC-257 melanoma)	GI50 (CAKI-1 renal)
O=c1oc2c3ccc4ccccc4c3n(CCN3CCOCC3)c2c2ccccc12	> 100 µM	> 100 µM	> 100 µM	> 100 µM	> 100 µM	> 100 µM	> 100 µM	> 100 µM	> 100 µM											
COCC1C(=O)c2cc3c(cc2C12C=CC1(C=C2)OCCO1)OCO3 (centres undefined)	6.5 µM	29.4 µM	16 µM	4.54 µM	38 µM	14.7 µM	28.9 µM	32.6 µM	29.8 µM											
O=c1c2cc(Br)ccc2[nH]c(=S)n1-c1ccc(Br)cc1	> 100 µM	> 100 µM	> 100 µM	> 100 µM	> 100 µM	> 100 µM	41 µM	> 100 µM		> 100 µM										
COc1cc(C2c3cc4c(cc3[C@H](NC(=O)c3cccs3)C3COC(=O)[C@H]23)OCO4)cc(OC)c1OC (some centres undefined)	36.8 µM	> 100 µM	> 40.8 µM	21.7 µM	0.0308 µM		> 100 µM	> 100 µM		0.0481 µM										
O=C(CC1(O)C(=O)Nc2c(Cl)cccc21)c1ccccc1 (centres undefined)	> 100 µM		> 100 µM	> 100 µM	> 100 µM		> 100 µM	> 100 µM	> 100 µM											
COc1ccc(C(=O)C(c2ccc(OC)cc2)C2C(=O)Oc3ccccc32)cc1 (centres undefined)	> 100 µM	> 100 µM	> 100 µM	> 100 µM	> 100 µM	> 100 µM	> 100 µM	> 100 µM		> 100 µM	> 100 µM	> 100 µM	> 100 µM	> 100 µM	> 100 µM	> 100 µM	> 100 µM	> 100 µM	> 100 µM	
O=c1cc2n(c(=O)[nH]1)C1OC(C(O)C1O)[C@H]2CCO (some centres undefined)	> 100 µM	> 100 µM	> 100 µM	> 100 µM	> 100 µM	> 100 µM		> 100 µM	> 100 µM	> 100 µM										
COc1ccc(-c2cc(-c3ccc(O)cc3)nc3nc(=S)[nH]c(N)c23)cc1		73.8 µM	79.2 µM	56.6 µM	50.1 µM		> 100 µM	36.3 µM	88.7 µM	43.4 µM		18.6 µM	23.4 µM	22.8 µM	20.5 µM	17 µM		26.2 µM	17.2 µM	27.1 µM
CC(=O)Oc1ccc2ccc(=O)oc2c1OC(C)=O		> 100 µM	> 100 µM	> 100 µM	63.1 µM		> 100 µM	> 100 µM	> 100 µM	> 100 µM										
CCCn1cc(C2=C(c3cn(C)c4ccccc34)C(=O)NC2=O)c2ccccc21		> 17 µM	> 16.1 µM	> 25 µM	> 7.08 µM		2.09 µM	> 25 µM	> 23.2 µM	4.77 µM		4.03 µM	2.64 µM	1.62 µM	0.837 µM	0.889 µM		0.458 µM	1.8 µM	0.937 µM
C[C@]12CCC3[C@@H](C[C@H]4OC(=O)[C@@]35CCC(=O)C=C45)C1CCC2=O (some centres undefined)	> 100 µM	> 100 µM	> 100 µM	> 100 µM	> 100 µM	> 100 µM		> 100 µM												
COc1ccc(Nc2c3c4c(cccc4[nH]c2=O)C(=O)c2ccccc2-3)cc1		> 100 µM	18.6 µM	19.6 µM	0.0446 µM		> 72.1 µM	> 92.4 µM	1.23 µM			0.0365 µM	0.0373 µM	0.0334 µM	< 0.0192 µM	0.0191 µM		0.0278 µM	1.21 µM	< 0.0218 µM
COc1ccc(/C=C2\N=C(c3ccccc3)N(c3cc(C(F)(F)F)ccc3Cl)C2=O)cc1OC		> 100 µM	> 100 µM	37.3 µM	> 100 µM		> 100 µM	> 100 µM	> 100 µM	> 100 µM		28.4 µM	31.8 µM	13.8 µM	> 100 µM	74 µM		56.7 µM	> 100 µM	> 100 µM
[N-]=[N+]=Nc1ccccc1-[n+]1noc([O-])c1Br	> 100 µM	> 100 µM	> 100 µM	> 100 µM	> 100 µM	> 100 µM	> 100 µM	> 100 µM	> 100 µM											
O=C1CSC(=S)N1c1ccc(F)cc1F		> 100 µM	> 100 µM	> 100 µM	> 100 µM		> 100 µM	> 100 µM	> 100 µM	> 100 µM										
CN(CCCCCl)P(=O)(OCc1ccc([N+](=O)[O-])o1)C(F)(F)c1ccc(CC(=O)N[C@@H](CC(=O)O)C(=O)N[C@@H](Cc2ccc(C(F)(F)P(=O)(OCc3ccc([N+](=O)[O-])o3)N(C)CCCCCl)cc2)C(N)=O)cc1 (some centres undefined)		> 100 µM	> 100 µM	> 100 µM	> 100 µM		91.9 µM	> 100 µM	> 100 µM	87.5 µM		45.7 µM	42.9 µM	> 100 µM	33 µM	41 µM		34.5 µM	> 100 µM	> 100 µM
Cc1cc2cc(Cl)ccc2nc1C(=O)c1ccccc1	> 100 µM	> 100 µM	> 100 µM	> 100 µM	> 100 µM	> 100 µM	81.9 µM	> 100 µM	> 100 µM											
O=C(CSc1nc2ccc([N+](=O)[O-])cc2[nH]1)Nc1cccc(Cl)c1		18.3 µM	21.8 µM	14.1 µM	4.27 µM		7.81 µM	6.68 µM	10.4 µM	4.16 µM		3.1 µM	3.04 µM	3.02 µM	1.43 µM	1.92 µM		1.85 µM	1.57 µM	2.3 µM
Nc1nc(=O)n(C2CC(O)C(O)C(CO)O2)cc1F (centres undefined)	> 100 µM	> 100 µM	> 100 µM	> 100 µM	> 100 µM	> 100 µM	> 100 µM	> 100 µM		> 100 µM										
